From BindingDB's records for doi:10.1021/jm060978s (Daiichi Asubio Medical Research Laboratories, 2006)

How the values were obtained:
Test in all cases: Enzyme Inhibition Assay
Coagulation factor XI = Coagulation factor XI (Homo sapiens, UniProt P03951); settings: pH 7.4; 30 °C
Prothrombin = Prothrombin (Homo sapiens, UniProt P00734)
Coagulation factor X = Coagulation factor X (Homo sapiens, UniProt P00742)
Chain of Coagulation factor X (P00742 41-179 limits assumed): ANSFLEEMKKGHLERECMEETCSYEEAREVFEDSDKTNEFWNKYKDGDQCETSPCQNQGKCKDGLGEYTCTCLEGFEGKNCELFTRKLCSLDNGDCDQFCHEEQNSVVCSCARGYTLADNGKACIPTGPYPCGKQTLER
Chain of Coagulation factor X (P00742 235-488 limits assumed): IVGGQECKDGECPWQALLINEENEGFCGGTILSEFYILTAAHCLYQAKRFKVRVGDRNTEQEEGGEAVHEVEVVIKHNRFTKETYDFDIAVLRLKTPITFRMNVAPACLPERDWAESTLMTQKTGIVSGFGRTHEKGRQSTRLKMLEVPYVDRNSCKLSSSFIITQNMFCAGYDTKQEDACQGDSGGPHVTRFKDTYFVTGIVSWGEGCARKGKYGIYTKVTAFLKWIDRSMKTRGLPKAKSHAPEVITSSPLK

Chain of Coagulation factor XI (P03951 19-387 limits assumed): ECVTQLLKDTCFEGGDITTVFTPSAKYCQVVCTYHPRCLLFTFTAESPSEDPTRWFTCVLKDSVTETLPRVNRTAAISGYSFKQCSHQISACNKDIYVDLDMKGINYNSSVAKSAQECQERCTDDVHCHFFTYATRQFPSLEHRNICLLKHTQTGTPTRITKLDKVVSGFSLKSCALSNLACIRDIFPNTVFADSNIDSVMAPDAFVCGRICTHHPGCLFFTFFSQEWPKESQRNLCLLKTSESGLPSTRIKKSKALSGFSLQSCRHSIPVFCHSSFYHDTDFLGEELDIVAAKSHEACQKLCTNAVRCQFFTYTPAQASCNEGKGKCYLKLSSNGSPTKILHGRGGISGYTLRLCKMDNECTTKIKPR
Chain of Coagulation factor XI (P03951 388-625 limits assumed): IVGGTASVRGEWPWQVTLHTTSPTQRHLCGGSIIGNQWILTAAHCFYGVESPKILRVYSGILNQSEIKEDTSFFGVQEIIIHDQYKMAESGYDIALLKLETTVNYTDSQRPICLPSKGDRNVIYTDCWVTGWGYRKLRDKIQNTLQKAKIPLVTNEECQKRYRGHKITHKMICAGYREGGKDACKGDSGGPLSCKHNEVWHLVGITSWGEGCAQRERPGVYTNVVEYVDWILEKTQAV

| SMILES | IC50 (Coagulation factor XI) [nM] | IC50 (Prothrombin) [nM] | IC50 (Coagulation factor X) [nM] |
| --- | --- | --- | --- |
| CC(C)[C@H](NC(=O)[C@H](Cc1ccccc1)NC(=O)Cc1cccs1)C(=O)N[C@@H](CCCN=C(N)N)C(=O)c1nccs1 [(2S)-N-[(2S)-5-carbamimidamido-1-oxo-1-(1,3-thiazol-2-yl)pentan-2-yl]-3-methyl-2-[(2S)-3-phenyl-2-[1-(thiophen-2-yl)acetamido]propanamido]butanamide] | 2600 |  |  |
| CC(C)[C@H](NC(=O)[C@H](Cc1ccccc1)NC(=O)NCc1ccc(Cl)c(Cl)c1)C(=O)N[C@@H](CCCN=C(N)N)C(=O)c1nccs1 [(2S)-N-[(2S)-5-carbamimidamido-1-oxo-1-(1,3-thiazol-2-yl)pentan-2-yl]-2-[(2S)-2-({[(3,4-dichlorophenyl)methyl]carbamoyl}amino)-3-phenylpropanamido]-3-methylbutanamide] | 93 | 6700 | 14200 |
| CC(C)[C@H](NC(=O)[C@H](Cc1ccccc1)NC(=O)c1ccco1)C(=O)N[C@@H](CCCN=C(N)N)C(=O)c1nccs1 [(2S)-N-[(2S)-5-carbamimidamido-1-oxo-1-(1,3-thiazol-2-yl)pentan-2-yl]-2-[(2S)-2-(furan-2-ylformamido)-3-phenylpropanamido]-3-methylbutanamide] | 2200 |  |  |
| CC(C)[C@H](NC(=O)[C@H](Cc1ccccc1)NC(=O)Nc1ccccc1)C(=O)N[C@@H](CCCN=C(N)N)C(=O)c1nccs1 [(2S)-N-[(2S)-5-carbamimidamido-1-oxo-1-(1,3-thiazol-2-yl)pentan-2-yl]-3-methyl-2-[(2S)-3-phenyl-2-[(phenylcarbamoyl)amino]propanamido]butanamide] | 1920 | 935 | > 20000 |
| CC(C)[C@H](NC(=O)[C@H](Cc1ccccc1)NC(=O)NCc1ccc(F)cc1)C(=O)N[C@@H](CCCN=C(N)N)C(=O)c1nccs1 [(2S)-N-[(2S)-5-carbamimidamido-1-oxo-1-(1,3-thiazol-2-yl)pentan-2-yl]-2-[(2S)-2-({[(4-fluorophenyl)methyl]carbamoyl}amino)-3-phenylpropanamido]-3-methylbutanamide] | 160 | 4300 |  |
| CCOC(=O)C(CC(C)C)NC(=O)N[C@@H](Cc1ccccc1)C(=O)N[C@H](C(=O)N[C@@H](CCCN=C(N)N)C(=O)c1nccs1)C(C)C (stereo partly drawn) [ethyl 2-({[(1S)-1-{[(1S)-1-{[(2S)-5-carbamimidamido-1-oxo-1-(1,3-thiazol-2-yl)pentan-2-yl]carbamoyl}-2-methylpropyl]carbamoyl}-2-phenylethyl]carbamoyl}amino)-4-methylpentanoate] | 403 | 2100 | 15400 |
| CC(C)[C@H](NC(=O)[C@H](Cc1ccccc1)NS(=O)(=O)c1ccc(Cl)c(Cl)c1)C(=O)N[C@@H](CCCN=C(N)N)C(=O)c1nccs1 [(2S)-N-[(2S)-5-carbamimidamido-1-oxo-1-(1,3-thiazol-2-yl)pentan-2-yl]-2-[(2S)-2-[(3,4-dichlorobenzene)sulfonamido]-3-phenylpropanamido]-3-methylbutanamide] | 2300 |  |  |
| CCOC(=O)C(Cc1ccccc1)NC(=O)N[C@@H](Cc1ccccc1)C(=O)N[C@H](C(=O)N[C@@H](CCCN=C(N)N)C(=O)c1nccs1)C(C)C (stereo partly drawn) [ethyl 2-({[(1S)-1-{[(1S)-1-{[(2S)-5-carbamimidamido-1-oxo-1-(1,3-thiazol-2-yl)pentan-2-yl]carbamoyl}-2-methylpropyl]carbamoyl}-2-phenylethyl]carbamoyl}amino)-3-phenylpropanoate] | 258 | 2100 | 14300 |
